Assay results from ChEMBL document CHEMBL1250447, “An integrated platform of genomic assays reveals small-molecule bioactivities” (Nat Chem Biol, 2008).
Calls of active or inactive are those of the source. The rule behind the calls is not given here.

Key:
Assay type in all cases: functional, organism-based
[1] = test system: Saccharomyces cerevisiae; experiment: Antimicrobial activity against glc7-127 allele containing Saccharomyces cerevisiae harboring cdc28-as transfected with 2 uM expression vector TEplac195 at 25 nM using deletion pool construction
[2] = test system: Saccharomyces cerevisiae; experiment: Antimicrobial activity against glc7-129 allele containing Saccharomyces cerevisiae harboring cdc28-as transfected with 2 uM expression vector TEplac195 at 25 nM using deletion pool construction
[3] = test system: Saccharomyces cerevisiae; experiment: Suppression of […] gene in Saccharomyces cerevisiae harboring cdc28-as at 2.5 uM using deletion pool construction by TAG microarray
[4] = test system: Saccharomyces cerevisiae; experiment: Suppression of […] gene in Saccharomyces cerevisiae harboring cdc28-as transfected with 2 uM expression vector TEplac195 at 5 uM using multicopy pool construction by TAG microarray
[5] = test system: Saccharomyces cerevisiae; experiment: Suppression of TUB2 gene in Saccharomyces cerevisiae harboring cdc28-as transfected with 2 uM expression vector TEplac195 at 33.2 uM using multicopy pool construction by TAG microarray
[6] = test system: Saccharomyces cerevisiae; experiment: Suppression of TUB2 gene in Saccharomyces cerevisiae harboring cdc28-as at 15 uM using deletion pool construction by TAG microarray
[7] = test system: Saccharomyces cerevisiae; experiment: Suppression of TUB1 gene in Saccharomyces cerevisiae harboring cdc28-as at 15 uM using deletion pool construction by TAG microarray
[8] = test system: Saccharomyces cerevisiae; experiment: Suppression of TUB1 gene in Saccharomyces cerevisiae harboring cdc28-as transfected with 2 uM expression vector TEplac195 at 33.2 uM using multicopy pool construction by TAG microarray
[9] = test system: Saccharomyces cerevisiae; experiment: Antimicrobial activity against glc7-129 allele containing Saccharomyces cerevisiae harboring cdc28-as transfected with 2 uM expression vector TEplac195 at 2.5 nM using deletion pool construction
[10] = test system: Saccharomyces cerevisiae; experiment: Antimicrobial activity against glc7-127 allele containing Saccharomyces cerevisiae harboring cdc28-as transfected with 2 uM expression vector TEplac195 at 2.5 nM using deletion pool construction
[11] = test system: Saccharomyces cerevisiae; experiment: Suppression of CSH1 gene in Saccharomyces cerevisiae harboring cdc28-as transfected with 2 uM expression vector TEplac195 at 500 nM using multicopy pool construction by TAG microarray
[12] = test system: Saccharomyces cerevisiae; experiment: Suppression of CDC28 gene in Saccharomyces cerevisiae harboring cdc28-as transfected with 2 uM expression vector TEplac195 at 500 nM using multicopy pool construction by TAG microarray
[13] = test system: Saccharomyces cerevisiae; experiment: Suppression of IFA38 gene in Saccharomyces cerevisiae harboring cdc28-as transfected with 2 uM expression vector TEplac195 at 500 nM using multicopy pool construction by TAG microarray
[14] = test system: Saccharomyces cerevisiae; experiment: Suppression of TOS1 gene in Saccharomyces cerevisiae harboring cdc28-as transfected with 2 uM expression vector TEplac195 at 500 nM using multicopy pool construction by TAG microarray
[15] = test system: Saccharomyces cerevisiae; experiment: Suppression of HEM1 gene in Saccharomyces cerevisiae harboring cdc28-as at 0.002% using deletion pool construction by TAG microarray
[16] = test system: Saccharomyces cerevisiae; experiment: Suppression of HEM1 gene in Saccharomyces cerevisiae harboring cdc28-as transfected with 2 uM expression vector TEplac195 at 0.015% using multicopy pool construction by TAG microarray

With `COC[C@@H]([C@H](O)[C@H](O)C(=O)NCC[C@H](C)c1nc(/C=C/C[C@@H]2O[C@]3(C[C@@H](O)[C@@H]2C)O[C@H]([C@H](C[C@H](O)[C@H](C)[C@H](O)[C@H](C)/C=C(C)/C(C)=C/C=C/C(C)=C\C#N)OC)[C@H](OP(=O)(O)O)C3(C)C)co1)N(C)C` the Activity [1] was “inactive” and the Activity [2] was “Active”.
For `C/C1=C/C(=O)O[C@@H]2C[C@@H](CC[C@H](C)/C=C\C=C\CC1)O[C@@](O)([C@@H]1CSC(=O)N1)C2`, the Activity [3] was “Active” and the Activity [4] was “Active”.
`COC(=O)Nc1nc2cc(C(=O)c3cccs3)ccc2[nH]1` was tested, and the Activity [5] was “Active”, the Activity [6] was “Active” and the Activity [7] was “Active”. The Activity [8] was “Active”.
`C[C@@]12C(=O)OC(=O)[C@]1(C)[C@H]1CC[C@@H]2O1` was tested, and the Activity [9] was “inactive” and the Activity [10] was “Active”.
For `CC(C)(C)n1nc(Cc2cccc3ccccc23)c2c(N)ncnc21`, the Activity [11] was “Active”, the Activity [12] was “Active” and the Activity [13] was “Active”. For the same compound, the Activity [14] was “Active”.
In the case of `COS(C)(=O)=O`, the Activity [15] is reported as “Active” and the Activity [16] is reported as “Active”.
